# Columns and labels:
# [1] = target: T1, PIP4K2A (full length protein, SignalChem) (Homo sapiens, UniProt P48426); test: Kinase Assay PIP4K2 A (Sprint); ADP-Glo biochemical assay; settings: Table 2; compounds listed under IC50 range headings
# T1 construct: 4 nM PIP4K2A (full length protein, SignalChem); purchased SignalChem
# T1 sequence (P48426 1-406): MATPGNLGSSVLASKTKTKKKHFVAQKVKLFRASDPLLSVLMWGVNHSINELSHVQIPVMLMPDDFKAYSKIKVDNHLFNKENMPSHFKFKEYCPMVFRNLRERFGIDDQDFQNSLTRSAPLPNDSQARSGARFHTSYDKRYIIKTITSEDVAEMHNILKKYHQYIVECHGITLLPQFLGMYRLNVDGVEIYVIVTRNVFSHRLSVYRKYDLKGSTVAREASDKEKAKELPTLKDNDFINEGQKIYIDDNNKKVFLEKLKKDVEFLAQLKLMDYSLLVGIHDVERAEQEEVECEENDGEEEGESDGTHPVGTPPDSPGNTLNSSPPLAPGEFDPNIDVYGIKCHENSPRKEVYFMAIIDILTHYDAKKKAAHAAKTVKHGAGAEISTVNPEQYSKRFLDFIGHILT
# Procedure, shortened: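 Compounds (10-point, 3-fold dilutions) were pre-incubated 15 min at RT with an enzyme/substrate mix of 4 nM full-length PIP4K2A and 100 μM PI(5)P diC8 in 20 mM MOPS pH 7.2, 25 mM MgCl2, 0.005% Tween 20. A 60 μM ATP solution was added, reaction 1 h RT; ADP read by ADP-Glo luminescence, IC50 fitted from % inhibition vs DMSO.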
# GST tagged PIP4KtypeIIB = target: T2, GST tagged PIP4KtypeIIB (Homo sapiens, UniProt P78356); test: Trans-FI P kinase assay PIP4K2B (PIP4KtypeIIB inhibition assay); type: biochemical; settings: Table 4; compounds listed under IC50 range headings; 100 uM GTP, 5 nM PIP4KIIB; read-out: Trans-FI P kinase assays: PIP4K2B IC50
# T2 construct: made in house; host or cells: E. coli
# T2 sequence (P78356 1-416): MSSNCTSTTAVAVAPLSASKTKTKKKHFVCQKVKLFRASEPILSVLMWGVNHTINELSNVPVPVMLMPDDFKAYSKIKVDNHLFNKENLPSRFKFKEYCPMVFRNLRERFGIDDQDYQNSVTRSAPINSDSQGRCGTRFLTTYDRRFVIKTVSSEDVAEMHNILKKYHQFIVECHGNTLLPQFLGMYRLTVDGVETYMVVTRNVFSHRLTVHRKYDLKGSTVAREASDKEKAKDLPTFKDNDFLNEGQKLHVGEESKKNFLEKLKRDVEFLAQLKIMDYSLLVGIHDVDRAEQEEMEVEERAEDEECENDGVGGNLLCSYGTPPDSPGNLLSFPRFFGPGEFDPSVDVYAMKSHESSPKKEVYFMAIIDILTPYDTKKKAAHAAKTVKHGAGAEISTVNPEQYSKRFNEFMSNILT
# Description: GST tagged PIP4KtypeIIA and B enzymes were overexpressed in E. Coli and purified to >80% homogeneity. Phosphatidyl inositol-5-phosphate (PI5P, Cat. #850152, Avanti Polar Lipids Inc.) was used as the lipid substrate and phosphatidyl ethanolamine (DOPE 18:1, Cat. #850725, Avanti Polar Lipids Inc.) was used as the carrier lipid for assays. Ultrapure ATP and GTP was purchased from Bellbrooke Labs. ADP Glo reagents were obtained from Promega. Transcreener FI reagent was obtained from Bellbrooke labs.
# 1. HEPES buffer mix: 200 mM HEPES pH 7.4, 50 mM MgCl2, 0.05% v/v triton×100
# 2. HNE buffer: 20 mM HEPES, pH 7.4, 100 mM NaCl, 0.5 mM EGTA
# 3. H:E buffer: 30 mM HEPES, pH 7.4, 1 mM EGTA
# GST-tagged PIP4KtypeIIB (3.4 uL, 2.77 mg/mL) was diluted to 5 mL using HNE buffer to yield 5× enzyme stock (25 nM)
# Lipid Preparation: In a 10 mL pyrex glass vial, lug of PI5P and lug of DOPE were suspended in 2.5 mL of HEPES buffer mix and 2.5 mL of H:E buffer. The contents were mixed and sonicated for 3 min to yield a translucent lipid stock.
# Compound Preparation: Compounds were stored as 5 mM stocks in neat DMSO as room temperature in glass vials. 5 mM stocks were diluted to 2 mM and then serially diluted (3×) in neat DMSO in 96 well polypropylene plates. From the serially diluted stocks, 3 uL was delivered into 250 uL of 25% DMSO (in water) to generate 5× compound stocks. Typically, the highest compound conc. was 24 uM.
# The assay volume was kept at 25 uL. To each well of the reaction plate, 10 uL of lipid stock (1:1 ratio PI5P:DOPE) was delivered. This was followed by the addition of 5 uL of compound in 25% DMSO. Then, to each well, 5 uL of 25 nM (5×) typeIIB enzyme was delivered. The contents were mixed well and incubated for 1 h at 27 C. After 1 h, reaction was initiated by adding 5 uL of 500 uM GTP and the contents were mixed well with a multi-channel pipetteman. The final concentration of the reagents are as follows: 50 mM HEPES, pH 7.3, 10 mM MgCl2, 20 mM NaCl, 0.01% v/v triton-X100, 5% DMSO, 100 uM GTP, 80 uM (2 ug) PI5P, 2 ug DOPE, and 5 nM PIP4KIIB Typically, the highest conc. of compounds was 4.8 uM and the lowest conc. was 0.
# After 2 h, the reaction was quenched by adding 25 uL of transcreener FI reagent. The contents were incubated at RT for 1 h and the Fluorescence (Ex: 584 Em: 623) was read using Molecular Devices Paradigm plate reader. […] The blanks were averaged and subtracted from all other wells. Using a calibration curve, RFU was converted to uM GDP (product). IC50 was calculated by plotting the residual activity (expressed as % No inhibitor control) vs. log [Inh. conc.] Table 2 represents PI5P4K activity of compounds (Example No.) of the invention arranged in accordance with the inhibition of PIP4K2 A kinase assay.
Structure (SMILES),IC50 [1],IC50 (GST tagged PIP4KtypeIIB)
"O=C(c1cc2c(-c3cncc(-c4ccc(N5CCCC5=O)cc4)c3)ccnc2[nH]1)N1CCCC2(CCCO2)C1 (stereo not drawn) [Example 332, 1-(4-(5-(2-(1-oxa-7-azaspiro[4.5]decane-7-carbonyl)-1H-pyrrolo[2,3-b]pyridin-4-yl)pyridin-3-yl)phenyl)pyrrolidin-2-one]",100 to 1000 nM,100 to 1000 nM
"O=C1CCCN1c1ccc(-c2cncc(-c3cc(C4CC4)nc4nncn34)c2)cc1 [Example 333, 1-(4-(5-(7-cyclopropyl-[1,2,4]triazolo[4,3-a]pyrimidin-5-yl)pyridin-3-yl)phenyl)pyrrolidin-2-one]",100 to 1000 nM,100 to 1000 nM
"Nc1ncc(-c2cnc3ncc(-c4cncc(-c5ccc(N6CCCC6=O)cc5)c4)cn23)cn1 [Example 334, 1-(4-(5-(3-(2-aminopyrimidin-5-yl)imidazo[1,2-a]pyrimidin-6-yl)pyridin-3-yl)phenyl)pyrrolidin-2-one]",100 to 1000 nM,100 to 1000 nM
"CN1CCn2c(cc3c(-c4cncc(-c5ccc(C(=O)N6CCC(C)(C)CC6)cc5)c4)ccnc32)C1=O [Example 335, 4-(5-(4-(4,4-dimethylpiperidine-1-carbonyl)phenyl)pyridin-3-yl)-7-methyl-8,9-dihydropyrido[3′,2′:4,5]pyrrolo[1,2-a]pyrazin-6(7H)-one]",100 to 1000 nM,100 to 1000 nM
"Cc1cc(-c2cncc(-c3ccc(N4CCCC4=O)cc3)c2)n2cnnc2n1 [Example 336, 1-(4-(5-(7-methyl-[1,2,4]triazolo[4,3-a]pyrimidin-5-yl)pyridin-3-yl)phenyl)pyrrolidin-2-one]",< 5000 nM,> 5000 nM
"Nc1ccc(-c2cnc3ncc(-c4cncc(-c5ccc(N6CCCC6=O)cc5)c4)cn23)cn1 [Example 337, 1-(4-(5-(3-(6-aminopyridin-3-yl)imidazo[1,2-a]pyrimidin-6-yl)pyridin-3-yl)phenyl)pyrrolidin-2-one]",5 to 100 nM,100 to 1000 nM
"CC(C)(O)c1cnc2[nH]c(C3CC3)c(-c3cncc(-c4ccc(N5CCCC5=O)cc4)c3)c2c1 [Example 338, 1-(4-(5-(2-cyclopropyl-5-(2-hydroxypropan-2-yl)-1H-pyrrolo[2,3-b]pyridin-3-yl)pyridin-3-yl)phenyl)pyrrolidin-2-one]",100 to 1000 nM,10 to 100 nM

# Other lines, results leading:
IC50 [1],IC50 (GST tagged PIP4KtypeIIB),Structure (SMILES)
100 to 1000 nM,100 to 1000 nM,"Cc1ccc2c(c1)OCCN2C(=O)c1cc2c(-c3cncc(-c4ccc(N5CCCC5=O)cc4)c3)ccnc2[nH]1 [Example 339, 1-(4-(5-(2-(7-methyl-3,4-dihydro-2H-benzo[b][1,4]oxazine-4-carbonyl)-1H-pyrrolo[2,3-b]pyridin-4-yl)pyridin-3-yl)phenyl)pyrrolidin-2-one]"
< 5000 nM,> 5000 nM,"O=C1CCCN1c1ccc(-c2cncc(-c3ccnc4nncn34)c2)cc1 [Example 340, 1-(4-(5-([1,2,4]triazolo[4,3-a]pyrimidin-5-yl)pyridin-3-yl)phenyl)pyrrolidin-2-one]"
1000 to 2500 nM,1000 to 2500 nM,"O=C1CCCN1c1ccc(-c2cncc(-c3cnc4ncc(-c5cncnc5)n4c3)c2)cc1 [Example 341, 1-(4-(5-(3-(pyrimidin-5-yl)imidazo[1,2-a]pyrimidin-6-yl)pyridin-3-yl)phenyl)pyrrolidin-2-one]"
1000 to 2500 nM,100 to 1000 nM,"CN1CCn2c(cc3c(-c4cncc(-c5ccc(N6CCC(C)(C)CC6=O)cc5)c4)ccnc32)C1=O [Example 342, 4-(5-(4-(4,4-dimethyl-2-oxopiperidin-1-yl)phenyl)pyridin-3-yl)-7-methyl-8,9-dihydropyrido[3′,2′:4,5]pyrrolo[1,2-a]pyrazin-6(7H)-one]"
5 to 100 nM,100 to 1000 nM,"CC(=O)Nc1ccc(-c2cn(C)c3ncc(-c4cncc(-c5ccc(N6CCCC6=O)cc5)c4)cc23)cn1 [Example 343, N-(5-(1-methyl-5-(5-(4-(2-oxopyrrolidin-1-yl)phenyl)pyridin-3-yl)-1H-pyrrolo[2,3-b]pyridin-3-yl)pyridin-2-yl)acetamide]"

# Reference: patent US11919902B2, “Aryl-bipyridine amine derivatives as phosphatidylinositol phosphate kinase inhibitors” (HiberCell, Inc., priority 2017, dated 2024)
